The values below come from patent EP4566594A1, “LIPID NANOPARTICLES COMPRISING LONG-CHAIN CERAMIDE AND COMPOSITION FOR CELL DEATH COMPRISING SAME” (Croda Korea Limited, priority 2022, dated 2024).

One data set deals with MDA-MB-468 cells. Description: Cell viability, WST-8 reagent, absorbance at 450nm. The data set is classed as cell-based. Particulars: ceramide alone dispersed in aqueous solution in the same amount as in Examples 1 and 2, column purified. Here is the method: (§1) MDA-MB-231 and MDA-MB-468 cells were cultured at 37°C under 10% fetal bovine serum (FBS) and ATCC modified RPMI medium (Gibco) supplemented with 1% penicillin/streptomycin, 5% CO2.
(§2) For experiments, lipid nanoparticles prepared at each concentration of C18-ceramide were respectively treated (the number of particles: 4.5 x 10^8 ± 2.05 x 10^8) to MDA-MB-231 and MDA-MB-468 cells which were inoculated into a 96-well plate (1.5 x 10^3 cells/well). After 24 hours of incubation, WST-8 reagent (Dojindo) was added to the medium at 37°C for 1 hour. Absorbance was measured at 450nm using a microplate reader (BioTek). Thereafter, cell viability was confirmed by measuring absorbance every 24 hours.
In addition, the cell viability of MDA-MB-468 cells was reduced to 53% when lipid nanoparticles of 5 mM C18-ceramide were treated (FIG. 9b).
In general terms: Tetrazolium dyes change colour on reduction, which living cells bring about.

In a further data set the test system is MDA-MB-231 cells. Briefly: Cell viability, WST-8 reagent, absorbance at 450nm. The data set is classed as cell-based. The following applies: ceramide alone dispersed in aqueous solution in the same amount as in Examples 1 and 2, column purified. The method, then: as §1, §2
In data set [1] the test system is apoptosis-related proteins (BAX, BAD, BCL2, and cleaved caspase3). Description: Western blotting of apoptosis-related proteins in MDA-MB-468 cells. Particulars: ceramide alone dispersed in aqueous solution in the same amount as in Examples 1 and 2, column purified. The data set is classed as cell-based. The method, then:
MDA-MB-468 cells were cultured in ATCC modified RPMI medium (Gibco) supplemented with 10% fetal bovine serum (FBS) and 1% penicillin/streptomycin at 37°C under 5% CO2.
For experiments, MDA-MB-468 cells were seeded onto 60 mm^2 cell culture plates (1.3 x 10^6 cells/plate). After 24 hours, LNP prepared at different concentrations of C18-ceramide was calculated and added to 2.5 mL opti-MEM medium per well such that 2.48 x 10^11±2.75 x 10^10 particles were included in the medium. The medium containing LNP was treated and incubated at 37°C for 24 hours.
Thereafter, the cells were collected, and western blotting was performed. For this purpose, MDA-MB-468 cells treated with LNP were lysed in RIPA buffer containing a protease inhibitor and a phosphatase inhibitor (Sigma). Total cell lysates were quantified using the BCA protein assay kit (Thermo Scientific). Next, the cell lysate (50 µg) was loaded on a 4-15% gradient SDS-PAGE gel (Biorad) under denaturing conditions and transferred to a PVDF membrane (iBlot2 Dry Blotting System, Thermo Scientific). […]
The secondary antibody conjugated with HRP was reacted at room temperature for 2 hours, and then the membrane was treated with Western ECL, and the luminescence image was analyzed using LAS500 (GE Healthcare), and the results are shown in FIG. 10.
For orientation: A western blot detects proteins with antibodies after separation by electrophoresis.

Data set [2] is described as follows: Solubility of C18-ceramide itself in aqueous solution. The data set is classed as physicochemical. The following applies: without lipid nanoparticles.

On to `CCCCCCCC/C=C\CCCCCCCC(=O)N[C@@H](CO)[C@H](O)[C@H](O)CCCCCCCCCCCCCC` (stereo in doubt) [C18-ceramide, N-Oleoyl-phytosphingosine], for which the cell survival rate entry in the data set on MDA-MB-468 cells and with MDA-MB-231 cells was “no change” throughout. Besides, the antitumor-related protein expression entry in data set [1] is reported as “no change”. In addition, the “solubility in an aqueous solution” value in data set [2] was “insoluble”.
